Positions of bridges follow the written chain, without caps; N, C: chain ends. Non-standard residues stand in square brackets, D forms with d. Residues, ends and D or L forms follow the SMILES beside them.
What was measured:
B16/F1 melanoma = test: Biodistribution in B16/F1 melanoma-bearing C57 mice; type: in vivo; conditions: for Tumor uptake blocked by NDP-MSH: 6.1 nmol of NDP-MSH; for Tumor uptake decreased (blocked) by RGD co-injection: 3.5 μg (6.1 nmol) of RGD; for Tumor uptake with NDP-MSH co-injection as % of the tumor uptake without: 10 μg (6.1 nmol) NDP-MSH, 2 h after dose administration
Method: All the animal studies were conducted in compliance with Institutional Animal Care and Use Committee approval. The pharmacokinetics of ^99mTc-RGD-Lys-(Arg^11)CCMSH was determined in B16/F1 melanoma-bearing C57 female mice (Harlan, Indianapolis, Ind.). C57 mice were subcutaneously inoculated on the right flank with 1×10^6 B16/F1 cells. The weight of tumors reached approximately 0.2 g 10 days post cell inoculation. Each melanoma-bearing mouse was injected with 0.037 MBq of ^99mTc-RGD-Lys-(Arg^11)CCMSH via the tail vein. Groups of 5 mice were sacrificed at 0.5, 2, 4 and 24 h post-injection, and tumors and organs of interest were harvested, weighed and counted. Blood values were taken as 6.5% of the whole-body weight. The MC1 receptor specificity of the tumor uptake was determined at 2 h post-injection by co-injecting ^99mTc-RGD-Lys-(Arg^11)CCMSH with 10 μg (6.1 nmol) of unlabeled NDP-MSH, a linear α-MSH peptide analogue with picomolar affinity for the MC1 receptors present on murine melanoma cells. The co-injection of 3.5 μg (6.1 nmol) of RGD peptide was performed to determine the αvβ3 integrin specificity of the tumor uptake 2 h post-injection. Statistical analysis was performed using the Student's t-test for unpaired data.
All the animal studies were conducted in compliance with Institutional Animal Care and Use Committee approval. The pharmacokinetics of ^99mTc-RGD-Arg-(Arg^11)CCMSH was determined in B16/F1 melanoma-bearing C57 female mice (Harlan, Indianapolis, Ind.). C57 mice were subcutaneously inoculated on the right flank with 1×10^6 B16/F1 cells. The weight of tumors reached approximately 0.2 g 10 days post cell inoculation. Each melanoma-bearing mouse was injected with 0.037 MBq of ^99mTc-RGD-Arg-(Arg^11)CCMSH via the tail vein. Groups of 5 mice were sacrificed at 0.5, 2, 4 and 24 h post-injection, and tumors and organs of interest were harvested, weighed and counted. Blood values were taken as 6.5% of the whole-body weight. The MC1 receptor specificity of the tumor uptake was determined at 2 h post-injection by co-injecting ^99mTc-RGD-Arg-(Arg^11)CCMSH with 10 μg (6.1 nmol) of unlabeled NDP-MSH. The co-injection of 3.5 μg (6.1 nmol) of RGD peptide was performed to determine the αvβ3 integrin specificity of the tumor uptake at 2 h post-injection.

[1] = Stability in mouse serum monitored by RP-HPLC; type: in vitro ADME; conditions: 37° C., 24 h
Method: RGD-Lys-(Arg^11)CCMSH was radiolabeled with ^99mTc via a glucoheptonate transchelation reaction using methods described previously (7). Briefly, 100 μl of 2 mg/ml SnCl2 in 0.2 M glucoheptonate aqueous solution and 200 μl of fresh ^99mTcO4^− solution (1-4 mCi) were added into a reaction vial and incubated at room temperature (25° C.) for […] to form ^99mTc-glucoheptonate. Then, 10 μl of 1 mg/ml RGD-Lys-(Arg^11)CCMSH aqueous solution was added into the reaction vial and the pH of the reaction mixture was adjusted to 8.5 with 0.1 M NaOH. The reaction mixture was incubated at 75° C. for 40 min. […] The stability of ^99mTc-RGD-Lys-(Arg^11)CCMSH was determined by incubation in mouse serum at 37° C. according to the published procedure (27) for various time periods, and monitored for degradation by RP-HPLC.
RGD-Arg-(Arg^11)CCMSH was radiolabeled with ^99mTc via a glucoheptonate transchelation reaction using methods described previously (17). […] The stability of ^99m Tc-RGD-Arg-(Arg^11)CCMSH was determined by incubation in mouse serum at 37° C. according to the published procedure (17) for various time periods, and monitored for degradation by RP-HPLC.

| SMILES | Tumor uptake blocked by NDP-MSH (B16/F1 melanoma; 2 h post-injection) | Tumor uptake decreased (blocked) by RGD co-injection (B16/F1 melanoma; 2 h post-injection) | Tumor uptake with NDP-MSH co-injection as % of the tumor uptake without (B16/F1 melanoma) | Renal uptake values as % of those of ^99mTc-RGD-Lys-(Arg^11)CCMSH (B16/F1 melanoma; 0.5, 2, 4 and 24 h post-injection) | Renal uptake value as % of that of ^99mTc-RGD-Lys-(Arg^11)CCMSH (B16/F1 melanoma; 0.5 h post-injection) | Tumor uptake value, times that of ^99mTc-RGD-Lys-(Arg^11)CCMSH (B16/F1 melanoma; 0.5 h post-injection) | Renal uptake value as % of that of ^99mTc-RGD-Lys-(Arg^11)CCMSH (B16/F1 melanoma; 2 h post-injection) | Tumor uptake value, times that of ^99mTc-RGD-Lys-(Arg^11)CCMSH (B16/F1 melanoma; 2 h post-injection) | Renal uptake value as % of that of ^99mTc-RGD-Lys-(Arg^11)CCMSH (B16/F1 melanoma; 4 h post-injection) | Tumor uptake value as % of the tumor uptake value 2 h post-injection (B16/F1 melanoma; 4 h post-injection) | Tumor uptake value, times that of ^99mTc-RGD-Lys-(Arg^11)CCMSH (B16/F1 melanoma; 4 h post-injection) | Renal uptake value as % of that of ^99mTc-RGD-Lys-(Arg^11)CCMSH (B16/F1 melanoma; 24 h post-injection) | Tumor/kidney uptake ratio, times that of ^99mTc-RGD-Lys-(Arg^11)CCMSH (B16/F1 melanoma; 24 h post-injection) | Stability in mouse serum [1] | Kidneys, Percentage Injected Dose/gram (B16/F1 melanoma; 4 h post-injection) | Renal uptake value, times that of ^99mTc-(Arg^11)CCMSH (B16/F1 melanoma; 4 h post-injection) | Tumor uptake value, times that of ^99mTc-(Arg^11)CCMSH (B16/F1 melanoma; 4 h post-injection) | Tumor uptake value as % of the tumor uptake value 2 h post-injection (B16/F1 melanoma; 24 h post-injection) | Tumor uptake value, times that of ^99mTc-(Arg^11)CCMSH (B16/F1 melanoma; 24 h post-injection) | Renal uptake value, times that of ^188Re-dLys-(Arg^11)CCMSH (B16/F1 melanoma; mouse, in vivo) |
| --- | --- | --- | --- | --- | --- | --- | --- | --- | --- | --- | --- | --- | --- | --- | --- | --- | --- | --- | --- | --- |
| CC(C)[C@H](NC(=O)[C@@H]1CCCN1C(=O)[C@H](CCCNC(=N)N)NC(=O)[C@H](CS)NC(=O)[C@H](Cc1c[nH]c2ccccc12)NC(=O)[C@H](CCCNC(=N)N)NC(=O)[C@@H](Cc1ccccc1)NC(=O)[C@H](Cc1c[nH]cn1)NC(=O)[C@H](CCC(=O)O)NC(=O)[C@H](CS)NC(=O)[C@H](CS)NC(=O)[C@H](CCCNC(=N)N)NC(=O)[C@@H]1CC(=O)N[C@@H](CCCNC(=N)N)C(=O)NCC(=O)N[C@@H](CC(=O)O)C(=O)N[C@H](Cc2ccc(O)cc2)C(=O)N1)C(N)=O [^99mTc-RGD-Arg-(Arg^11)CCMSH, metal not drawn] (RGD[dY]DRCCEH[dF]RWCRPV-NH2; lactam N-5) | 90.9% | 21.2% | 9.15% | 40.14-64.08% | 53.65% | 1.27 times | 64.08% | 1.44 times | 52.89% | 75% | 1.28 times | 40.14% | 2.21 times | stable |  |  |  |  |  |  |
| CC(C)[C@H](NC(=O)[C@@H]1CCCN1C(=O)[C@H](CCCNC(=N)N)NC(=O)[C@H](CS)NC(=O)[C@H](Cc1c[nH]c2ccccc12)NC(=O)[C@H](CCCNC(=N)N)NC(=O)[C@@H](Cc1ccccc1)NC(=O)[C@H](Cc1c[nH]cn1)NC(=O)[C@H](CCC(=O)O)NC(=O)[C@H](CS)NC(=O)[C@H](CS)NC(=O)[C@H](CCCCN)NC(=O)[C@@H]1CC(=O)N[C@@H](CCCNC(=N)N)C(=O)NCC(=O)N[C@@H](CC(=O)O)C(=O)N[C@H](Cc2ccc(O)cc2)C(=O)N1)C(N)=O [^99mTc-RGD-Lys-(Arg^11)CCMSH, metal not drawn] (RGD[dY]DKCCEH[dF]RWCRPV-NH2; lactam N-5) | 87.8% | 29.2% | 12.2% |  |  |  |  |  |  | 85% |  |  |  | stable | 69.29 ± 14.34 % ID/g | 12.5 times | 1.1 times | 51% | 2.3 times | 1.2 times |

Source: patent US9005575B2, “Arg-Gly-Asp-conjugated alpha-melanocyte stimulating hormone hybrid peptide for use in diagnosing and treating melanoma, including metastatic melanoma and methods related to same” (STC.UNM, priority 2009, dated 2015)
